Patent publication US20120136033A1, “Small Molecule Antagonists of Phosphatidylinositol-3,4,5-Triphosphate (PIP3) and Uses Thereof” (President and Fellows of Harvard College, priority 2009, published 2012)

Experiments:
[1] = tested on: SV40-transformed mouse adult lung fibroblasts; experiment: loss of viability, Akt1-expressing vs Akt1-3 triple knockout lung fibroblasts; assay type: cell-based; conditions: P<0.01
Excerpt: Shaughnessy J D (2008) Nature 454:172-3; Weinstein I G (2002) Science 297:63-4. Therefore, the possibility that PIT-1 may cause preferential cell death in the cells containing elevated PIP3 levels was examined. […] Li D M et al. (1998) Proc Natl Acad Sci USA 95:15406-11. […] This observation is consistent with the notion that PTEN-deficient cancer cells become overly dependent on PIP3 signaling and, therefore, are hypersensitive to disruption of this pathway compared to wild-type PTEN-expressing cells. Neshat M S et al. (2001) Proc Natl Acad Sci USA 98:10314-9.

cells = experiment: cell death with inhibitors of mitochondrial respiration and ATP synthase; assay type: cell-based
Excerpt: Elstrom R L et al. (2004) Cancer Res 64:3892-9.

human cancer cells = experiment: transwell (Boyden chamber) migration of cancer cells; assay type: cell-based
Description: Two models of cell migration were used, a transwell migration model and a wound closure model. Migration of cancer and endothelial cells was evaluated using 24-transwell Boyden chamber (Costar, Bedford, Mass.) with a polystyrene membrane (6.5 mm diameter, 10 μm thickness, and 8 μm pore size). Cells were suspended in serum-free media and seeded in the upper compartment of each well (2×10^4 cells/well) in the presence or absence of different compounds at the indicated concentrations. The lower compartment contained 600 μl of serum-free culture media supplemented with growth factors. After an 8-hr incubation at 37° C., cells were fixed and stained with 0.1% crystal violet. Non-migrating cells on the upper surface of the filter were removed, and the stained cells that migrated to the lower side were photographed using a phase-contrast microscope (Nikon, Japan) in five random fields. The cells were lysed with 10% acetic acid, and colorimetric determination was made at 595 nm using Wallac Victor 3 plate reader.

CD31 = experiment: tumor angiogenesis in vivo, microvasculature marker CD31; conditions: mouse
Description: Tumor tissues were fixed in phosphate-buffered formalin, embedded in paraffin, cut in 4 μM thickness, and applied to slides. The slides were deparaffinized in xylenes using three changes for 5 min each, and hydrated gradually through graded alcohols: 100% ethanol twice for 10 min each, 95% ethanol twice for 10 min each, and then deionized water for 1 min with stirring. For antigen unmasking, slides were placed in a container, covered with 10 mM sodium citrate buffer, pH 6.0, and heated in a convection steamer for 1 hr. The slides were washed in deionized water three times for 2 min each, blocked with 5% normal goat blocking serum for 30 min, incubated with goat anti-CD31 primary antibody for 1 hr, and incubated with an Alexa Fluor 488-conjugated secondary antibody for 30 min. The slides were analyzed and photographed using a fluorescent microscope. TUNEL staining was performed using FragEL kit according to manufacturer's instructions (Calbiochem).
In view of the significant inhibitory effect of PIT-1 on angiogenesis observed in vitro, the extent of angiogenesis in DM-PIT-1-treated tumors was examined in vivo using microvasculature marker CD31. […] Suppression of angiogenesis also likely contributed to the suppression of tumor growth by DM-PIT-1 treatment in vivo, considering a relatively low dose of the compound used in the experiments.

[2] = solubility / precipitation; assay type: physicochemical; conditions: 300 μM, unencapsulated, cell media
Excerpt: This method has been reported to be efficient for in vivo targeting of cancer cells by other poorly soluble anti-cancer drugs, such as m-porphyrin, tamoxifen, and taxol. Gao Z et al. (2003) J Drug Target 11:87-92; Torchilin V P et al. (2003) Proc Natl Acad Sci USA 100:6039-44.
The size of the DM-PIT-1-loaded micelles was about 15 nm with a narrow size distribution.

4T1 breast cancer = experiment: syngeneic 4T1 breast tumor growth in BALB/c mice; assay type: in vivo, mouse
Description: After inoculation of tumor cells, DM-PIT-1 or DM-PIT-1-M were administered i.v. daily at doses of 0.4 mg/kg and 1 mg/kg, respectively, for 8 days. Tumor volumes as measured every two days are shown.
The effect of intravenous (i.v.) administration of both unencapsulated DM-PIT-1 in PBS and DM-PIT-1-M on the syngeneic 4T1 breast cancer growth in BALB/c mice was examined. 4T1 metastatic breast cancer cells were first cultured in vitro in DMEM medium containing 10% FBS and antibiotics. After re-suspension in PBS, the 4T1 cancer cells (8×10^4) were injected s.c. into axillary regions of BALB/c mice. The treatment with PIT-1 began on day 11 after inoculation of tumor cells, i.e., when tumors were palpable, but before tumors are precisely measurable (˜50 mm^3). Working solutions of all PIT-1-formulations were made in sterile 0.9% NaCl before injection into mice. Free DM-PIT-1 and micellar DM-PIT-1 were administered i.v. daily at doses of 0.4 and 1 mg/kg, respectively, for 8 days. If the tumor size reached approx. 1000 mm^3, the mice were euthanized using carbon dioxide (CO2) prior to cervical dislocation. Seven mice per group were used. The tumor volume (V) was measured every two days by microcaliper for 8 days. Tumor volume was calculated according to the formula ([…])/2, where α is the longest and b is the shortest diameter of tumor, respectively.

U87MG cells [3] = experiment: U87MG cell viability, ATP assay; assay type: cell-based, human
Description: U87MG cells were incubated with PITs (12.5-100 μM) for 48 hr. Cell viability was determined using ATP assay.
Based on the critical role of PIP3-dependent Akt signaling in the regulation of cell survival, the effect of PIT-1 on the cancer cell viability was tested. Cancer cells were seeded into 96-well plates (white plates for ATP assay; black plates for fluorescent assay; clear plates for MTS assay) at the density of 5-10×10^3 cells per well in 100 μl of the appropriate media. Compounds were added at a series of concentrations and incubated for different times. For the ATP assay, a luminescence-based commercial kit (CellTiter-Glo, Promega, Madison, Wis.) was used. Thirty microliters of cell lysis/ATP detection reagent was added to each well, mixed for 10 min at room temperature, and the luminescence was measured using a Wallac Victor 3 plate reader (Perkin-Elmer, Wellesley, Mass.). For the MTS assay, a CellTiter 96 AQueous Non-Radioactive Cell Proliferation Assay Kit (Promega, Madison, Wis., USA) was used. Twenty microliters of the combined MTS/PMS solution was added into each well, incubated for 4 hr at 37° C., and the absorbance at 490 nm was measured using a Wallac Victor 3 plate reader. For the Sytox cell death assay, measuring loss of plasma membrane integrity, cells were incubated with 1 μM Sytox Green reagent (Molecular Probes, Eugene, Oreg.) for 30 min at 37° C. and the fluorescence intensity was measured using Wallac Victor 3 plate reader with excitation at 485 nm and emission at 545 nm. Next, 5 μl of 20% (v/v) Triton X-100 solution was added to each well and incubated for 1 hr at 37° C., and the signal was measured again. The ratio of values (percentage of dead cells in each well) before and after Triton X-100 treatment was calculated and normalized to the relevant controls not subjected to the cytotoxic stimuli. IC50 values were determined using Origin6 software (MicroCal, LLC, Northampton, Mass.).

PI3K-PDK1-Akt pathway = PI3K-PDK1-Akt pathway phosphorylation events in U87MG cells; assay type: cell-based, human
Description: The effect of PIT-1 on PIP3-mediated signaling was examined in U87MG glioblastoma cells, which show elevated basal levels of PIP3 due to the loss of PTEN. Pore N et al. (2003) Cancer Res 63:236-41.

[4] = tested on: PH domains of Akt, PDK1, and IRS1; conditions: cited from earlier work
[5] = cited from earlier work
U87MG cells [6] = experiment: sensitization of U87MG cells to killing by TRAIL, ATP assay; assay type: cell-based, human
Description: FIG. 10 is a bar graph depicting that PITs, as well as Akt inhibitor VIII, sensitize U87MG cells to killing by TRAIL. U87MG cells were incubated with 50 μM PIT-1, PIT-2, PIT-1i-1 or 10 μM Akt inhibitor VIII in the presence or absence of 10 ng/ml TRAIL for 48 hr, followed by cell viability analysis using ATP assay.
Based on the critical role of PIP3-dependent Akt signaling in the regulation of cell survival, the effect of PIT-1 on the cancer cell viability was tested. Cancer cells were seeded into 96-well plates (white plates for ATP assay; black plates for fluorescent assay; clear plates for MTS assay) at the density of 5-10×10^3 cells per well in 100 μl of the appropriate media. […] For the ATP assay, a luminescence-based commercial kit (CellTiter-Glo, Promega, Madison, Wis.) was used. Thirty microliters of cell lysis/ATP detection reagent was added to each well, mixed for 10 min at room temperature, and the luminescence was measured using a Wallac Victor 3 plate reader (Perkin-Elmer, Wellesley, Mass.). […] Twenty microliters of the combined MTS/PMS solution was added into each well, incubated for 4 hr at 37° C., and the absorbance at 490 nm was measured using a Wallac Victor 3 plate reader. […] Next, 5 μl of 20% (v/v) Triton X-100 solution was added to each well and incubated for 1 hr at 37° C., and the signal was measured again. […]

## O=c1[nH]c2ccccc2n1C1CCN(Cc2ccc(-c3nc4cc5[nH]cnc5cc4nc3-c3ccccc3)cc2)CC1 [Akt kinase inhibitor VIII, reference compound]
[1]
  loss of viability in Akt1-expressing fibroblasts compared to Akt1-3 triple knockout cells: comparable
cells
  synergy with oligomycin, antimycin A and rotenone in inducing cell death: synergized
Human cancer cells; transwell / wound healing models
  inhibition of cancer cell migration: lack thereof

## Cc1cc(C)cc(C(=O)NC(=S)Nc2cc([N+](=O)[O-])ccc2O)c1 [DM-PIT-1]
CD31
  CD31 loci in treated tumors (angiogenesis in vivo): attenuation of a number of CD31 loci
[2]
  precipitation in cell media at 300 μM: significant precipitation
4T1 breast cancer; 8-day administration, P<0.01
  tumor growth in vivo compared to control: significantly attenuated tumor growth
4T1 breast cancer; day 8, i.v. daily, free 0.4 mg/kg, micellar 1 mg/kg
  reduction of tumor volume as compared to control: 58.1%
4T1 breast cancer; day 8, i.v. daily, free 0.4 mg/kg, micellar 1 mg/kg, control 902.5±153
  tumor volume: 380±52.3 mm^3
U87MG cells [3]
  activity compared to PIT-1 in inducing cell death in U87MG cells: increased activity
PI3K-PDK1-Akt pathway
  activity compared to PIT-1 in inhibition of PI3K-PDK1-Akt signaling: increased activity
Human cancer cells
  activity compared to PIT-1 in inhibition of cell migration: increased activity

## CC1=NN(C(=O)c2ccc(Cl)cc2)C(=O)C1N=Nc1ccc(S(=O)(=O)Nc2ncccn2)cc1 (centres unmarked) [NSC 348900, 4-[1-(4-chlorobenzoyl)-3-methyl-5-oxo-4,5-dihydro-1H-pyrazol-4-ylazo]-N-pyrimidine-2-yl-benzenesulfonamide]
[4]
  interaction with PH domains of Akt, PDK1, and IRS1: capable of interacting
[5]
  in vivo anti-tumor activity: lacked in vivo anti-tumor activity

B1: TRAIL: Tumor necrosis factor (TNF)-related apoptosis-inducing ligand, 281 amino acid-long member of the TNF family of cytokines (protein, UniProt P50591 1-281, looked up)
chain: MAMMEVQGGPSLGQTCVLIVIFTVLLQSLCVAVTYVYFTNELKQMQDKYSKSGIACFLKEDDSYWDPNDEESMNSPCWQVKWQLRQLVRKMILRTSEETISTVQEKQQNISPLVRERGPQRVAAHITGTRGRSNTLSSPNSKNEKALGRKINSWESSRSGHSFLSNLHLRNGELVIHEKGFYYIYSQTYFRFQEEIKENTKNDKQMVQYIYKYTSYPDPILLMKSARNSCWSKDAEYGLYSIYQGGIFELKENDRIFVSVTNEHLIDMDHEASFFGAFLVG
modifications: full-length
notes: Tumor necrosis factor (TNF)-related apoptosis-inducing ligand, 281 amino acid-long member of the TNF family of cytokines
U87MG cells [6]
  sensitivity of U87MG cells to TRAIL alone: entirely resistant
